Reference: PubChem BioAssay (NCI)
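A five-concentration, 48-hour dose response in 96-well plates underlies each endpoint, interpolated linearly between surrounding concentrations. GI50: concentration for 50% inhibition of growth. At the TGI there is no net growth.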

Tests used:
Test in all cases: inhibition of tumour cell growth, NCI panel, 48 h
UACC-62 melanoma = tested on: UACC-62 melanoma
T-47D breast = tested on: T-47D breast
LOX IMVI melanoma = tested on: LOX IMVI melanoma
SK-OV-3 ovarian = tested on: SK-OV-3 ovarian
A498 renal = tested on: A498 renal
NCI-H226 lung = tested on: NCI-H226 lung
SNB-19 CNS = tested on: SNB-19 CNS
TK-10 renal = tested on: TK-10 renal
NCI-H460 lung = tested on: NCI-H460 lung
NCI-H23 lung = tested on: NCI-H23 lung
MCF7 breast = tested on: MCF7 breast
M14 melanoma = tested on: M14 melanoma
COLO 205 colon = tested on: COLO 205 colon
SF-539 CNS = tested on: SF-539 CNS
BT-549 breast = tested on: BT-549 breast
SR leukemia = tested on: SR leukemia
HCT-116 colon = tested on: HCT-116 colon
PC-3 prostate = tested on: PC-3 prostate
SW-620 colon = tested on: SW-620 colon
DU-145 prostate = tested on: DU-145 prostate
MALME-3M melanoma = tested on: MALME-3M melanoma
MDA-MB-435 = tested on: MDA-MB-435
MDA-MB-468 breast = tested on: MDA-MB-468 breast
HCT-15 colon = tested on: HCT-15 colon
MDA-MB-231 breast = tested on: MDA-MB-231 breast
A549 NSCLC = tested on: A549 NSCLC
HS 578T breast = tested on: HS 578T breast
HOP-92 NSCLC = tested on: HOP-92 NSCLC
OVCAR-3 ovarian = tested on: OVCAR-3 ovarian
MOLT-4 leukemia = tested on: MOLT-4 leukemia
SK-MEL-28 melanoma = tested on: SK-MEL-28 melanoma
UO-31 renal = tested on: UO-31 renal
CCRF-CEM leukemia = tested on: CCRF-CEM leukemia
OVCAR-4 ovarian = tested on: OVCAR-4 ovarian
HOP-62 NSCLC = tested on: HOP-62 NSCLC
CAKI-1 renal = tested on: CAKI-1 renal
SN12C renal = tested on: SN12C renal
HCC-2998 colon = tested on: HCC-2998 colon
SF-295 CNS = tested on: SF-295 CNS
EKVX NSCLC = tested on: EKVX NSCLC
OVCAR-5 ovarian = tested on: OVCAR-5 ovarian
SK-MEL-2 melanoma = tested on: SK-MEL-2 melanoma
ACHN renal = tested on: ACHN renal
IGROV1 ovarian = tested on: IGROV1 ovarian
K-562 leukemia = tested on: K-562 leukemia
U251 CNS = tested on: U251 CNS
HT29 colon = tested on: HT29 colon
SK-MEL-5 melanoma = tested on: SK-MEL-5 melanoma
RXF 393 renal = tested on: RXF 393 renal
786-0 renal = tested on: 786-0 renal
HL-60(TB) leukemia = tested on: HL-60(TB) leukemia
OVCAR-8 ovarian = tested on: OVCAR-8 ovarian
NCI-H522 lung = tested on: NCI-H522 lung
UACC-257 melanoma = tested on: UACC-257 melanoma
KM12 colon = tested on: KM12 colon
SF-268 CNS = tested on: SF-268 CNS
RPMI-8226 leukemia = tested on: RPMI-8226 leukemia

COc1cc(/C=C/C(=O)c2cnn(-c3cc(=O)[nH]c4ccc(C)cc34)c2C)cc(OC)c1OC
GI50 (UACC-62 melanoma): 2.85 µM
TGI (UACC-62 melanoma): 10.9 µM
GI50 (T-47D breast): 2.57 µM
TGI (T-47D breast): 16.2 µM
GI50 (LOX IMVI melanoma): 1.54 µM
TGI (LOX IMVI melanoma): 3.76 µM
GI50 (SK-OV-3 ovarian): 3.91 µM
TGI (SK-OV-3 ovarian): 13.4 µM
GI50 (A498 renal): 18 µM
TGI (A498 renal): 35.9 µM
GI50 (NCI-H226 lung): 2.64 µM
TGI (NCI-H226 lung): 7.79 µM
GI50 (SNB-19 CNS): 3.11 µM
TGI (SNB-19 CNS): 12 µM
GI50 (TK-10 renal): 3.54 µM
TGI (TK-10 renal): 11.5 µM
GI50 (NCI-H460 lung): 1.86 µM
TGI (NCI-H460 lung): 4.38 µM
GI50 (NCI-H23 lung): 1.89 µM
TGI (NCI-H23 lung): 4.3 µM
GI50 (MCF7 breast): 2.7 µM
TGI (MCF7 breast): 11.4 µM
GI50 (M14 melanoma): 3.16 µM
TGI (M14 melanoma): 13.2 µM
GI50 (COLO 205 colon): 2.77 µM
TGI (COLO 205 colon): 8.8 µM
GI50 (SF-539 CNS): 2.11 µM
TGI (SF-539 CNS): 4.79 µM
GI50 (BT-549 breast): 2.43 µM
TGI (BT-549 breast): 8.55 µM
GI50 (SR leukemia): 1.76 µM
TGI (SR leukemia): 11.3 µM
GI50 (HCT-116 colon): 3.63 µM
TGI (HCT-116 colon): 12.9 µM
GI50 (PC-3 prostate): 6.04 µM
TGI (PC-3 prostate): 26.8 µM
GI50 (SW-620 colon): 3.06 µM
TGI (SW-620 colon): 10.5 µM
GI50 (DU-145 prostate): 3.39 µM
TGI (DU-145 prostate): 12.6 µM
GI50 (MALME-3M melanoma): 3.89 µM
TGI (MALME-3M melanoma): 16.7 µM
GI50 (MDA-MB-435): 3.02 µM
TGI (MDA-MB-435): 12.1 µM
GI50 (MDA-MB-468 breast): 1.58 µM
TGI (MDA-MB-468 breast): 3.63 µM
GI50 (HCT-15 colon): 1.92 µM
TGI (HCT-15 colon): 5.01 µM
GI50 (MDA-MB-231 breast): 3.1 µM
TGI (MDA-MB-231 breast): 11.9 µM
GI50 (A549 NSCLC): 3.17 µM
TGI (A549 NSCLC): 11.2 µM
GI50 (HS 578T breast): 3.56 µM
TGI (HS 578T breast): > 100 µM
GI50 (HOP-92 NSCLC): 4.34 µM
TGI (HOP-92 NSCLC): 23.4 µM
GI50 (OVCAR-3 ovarian): 2.79 µM
TGI (OVCAR-3 ovarian): 7.95 µM
GI50 (MOLT-4 leukemia): 2.53 µM
TGI (MOLT-4 leukemia): 10.4 µM
GI50 (SK-MEL-28 melanoma): 3.7 µM
TGI (SK-MEL-28 melanoma): 13.2 µM
GI50 (UO-31 renal): 2.98 µM
TGI (UO-31 renal): 13.1 µM
GI50 (CCRF-CEM leukemia): 2.28 µM
TGI (CCRF-CEM leukemia): 8.76 µM
GI50 (OVCAR-4 ovarian): 3.85 µM
TGI (OVCAR-4 ovarian): 48.8 µM
GI50 (HOP-62 NSCLC): 3.56 µM
TGI (HOP-62 NSCLC): 12.5 µM
GI50 (CAKI-1 renal): 3.75 µM
TGI (CAKI-1 renal): 18.6 µM
GI50 (SN12C renal): 2.57 µM
TGI (SN12C renal): 10.2 µM
GI50 (HCC-2998 colon): 2.98 µM
TGI (HCC-2998 colon): 9.14 µM
GI50 (SF-295 CNS): 3 µM
TGI (SF-295 CNS): 11.1 µM
GI50 (EKVX NSCLC): 2.84 µM
TGI (EKVX NSCLC): 12.2 µM
GI50 (OVCAR-5 ovarian): 3.25 µM
TGI (OVCAR-5 ovarian): 11.6 µM
GI50 (SK-MEL-2 melanoma): 2.9 µM
TGI (SK-MEL-2 melanoma): 11 µM
GI50 (ACHN renal): 1.72 µM
TGI (ACHN renal): 3.79 µM
GI50 (IGROV1 ovarian): 2.41 µM
TGI (IGROV1 ovarian): 7.14 µM
GI50 (K-562 leukemia): 2.24 µM
TGI (K-562 leukemia): > 100 µM
GI50 (U251 CNS): 2.42 µM
TGI (U251 CNS): 8.48 µM
GI50 (HT29 colon): 3.07 µM
TGI (HT29 colon): 10 µM
GI50 (SK-MEL-5 melanoma): 2.39 µM
TGI (SK-MEL-5 melanoma): 7.34 µM
GI50 (RXF 393 renal): 2.09 µM
TGI (RXF 393 renal): 5.13 µM
GI50 (786-0 renal): 3.52 µM
TGI (786-0 renal): 14.6 µM
GI50 (HL-60(TB) leukemia): 2.29 µM
TGI (HL-60(TB) leukemia): 11.3 µM
GI50 (OVCAR-8 ovarian): 2 µM
TGI (OVCAR-8 ovarian): 4.63 µM
GI50 (NCI-H522 lung): 2.65 µM
TGI (NCI-H522 lung): 8.02 µM
GI50 (UACC-257 melanoma): 4.85 µM
TGI (UACC-257 melanoma): 20.4 µM
GI50 (KM12 colon): 3.24 µM
TGI (KM12 colon): 10.6 µM
GI50 (SF-268 CNS): 3.43 µM
TGI (SF-268 CNS): 14.8 µM
GI50 (RPMI-8226 leukemia): 2.02 µM
TGI (RPMI-8226 leukemia): 7.59 µM
